Measured values as given in the supplement of paper PMC6045584.
± gives the standard deviation of the averaged measurements.

Tests used:
SUNITINIB = compound: CCN(CC)CCNC(=O)c1c(C)[nH]c(/C=C2\C(=O)Nc3ccc(F)cc32)c1C [SUNITINIB]; test: surviving fraction relative to DMSO-only wells; higher = less growth inhibition; conditions: exposure time: 5 days
How it was run: (§1)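 Viability was scored with CellTiter-Glo luminescence and normalised to the median of DMSO-only wells as surviving fraction. Beforehand, log-phase tumour cell lines were seeded at 250–500 cells per well in 384-well plates, allowed 24 hours, and exposed continuously for five days to inhibitors at 0.5, 1, 5, 10, 50, 100, 500 and 1000 nM. Only lines whose three screens gave replicate Pearson r >0.7 and median Z' >0.3 were kept.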

[1] = compound: Cc1nc(Nc2n[nH]c3c2CN(C(=O)N[C@H](CN(C)C)c2ccccc2)C3(C)C)c2sccc2n1; test: as above; conditions: exposure time: 5 days
How it was run: as §1

Test System	surviving fraction (SUNITINIB; 0.5 nM)	surviving fraction (SUNITINIB; 5 nM)	surviving fraction (SUNITINIB; 50 nM)	surviving fraction (SUNITINIB; 100 nM)	surviving fraction (SUNITINIB; 500 nM)	surviving fraction (SUNITINIB; 1000 nM)	surviving fraction ([1]; 0.5 nM)	surviving fraction ([1]; 1 nM)	surviving fraction ([1]; 5 nM)	surviving fraction ([1]; 10 nM)	surviving fraction ([1]; 50 nM)	surviving fraction ([1]; 100 nM)	surviving fraction ([1]; 500 nM)	surviving fraction ([1]; 1000 nM)	surviving fraction (SUNITINIB; 1 nM)	surviving fraction (SUNITINIB; 10 nM)
C33A CERVIX	1.1 ± 0.13	1.18 ± 0.12	1.12 ± 0.049	1.22 ± 0.1	0.647 ± 0.081	0.339 ± 0.019	0.67 ± 0.035	0.62 ± 0.016	0.298 ± 0.049	0.26 ± 0.024	0.221 ± 0.011	0.214 ± 0.024	0.146 ± 0.0049	0.0663 ± 0.009		
CAL72 BONE	0.977 ± 0.016			1.058 ± 0.0023	0.92 ± 0.0072	0.663 ± 0.044	1.04 ± 0.066	0.993 ± 0.032	0.691 ± 0.061	0.556 ± 0.058	0.435 ± 0.025	0.399 ± 0.011	0.194 ± 0.023	0.0947 ± 0.0081	0.995 ± 0.028	
G292 BONE	0.903 ± 0.05	0.938 ± 0.048	0.909 ± 0.032	0.887 ± 0.061	0.553 ± 0.014	0.306 ± 0.0087	0.782 ± 0.028	0.642 ± 0.029	0.42 ± 0.0074	0.376 ± 0.004	0.324 ± 0.014	0.287 ± 0.012	0.166 ± 0.0052	0.0753 ± 0.0032	0.947 ± 0.037	0.904 ± 0.027
HUO3N1 BONE	0.907 ± 0.082	0.8743 ± 0.0058	0.817 ± 0.035	0.801 ± 0.036	0.64 ± 0.0053	0.379 ± 0.016	0.971 ± 0.018	0.942 ± 0.034	0.853 ± 0.011	0.781 ± 0.024	0.683 ± 0.015	0.625 ± 0.038	0.462 ± 0.029	0.407 ± 0.0059	0.88 ± 0.056	0.82 ± 0.034
LNCAP PROSTATE	1.12 ± 0.06		1.08 ± 0.093	1.14 ± 0.037	0.854 ± 0.11	0.45 ± 0.033	0.773 ± 0.021	0.632 ± 0.054	0.215 ± 0.0067	0.196 ± 0.019	0.098 ± 0.017	0.097 ± 0.012	0.0357 ± 0.0032	0.0227 ± 0.0029	1.19 ± 0.081	1.01 ± 0.12
SCC003 HEADNECK	0.834 ± 0.071	0.851 ± 0.036	0.97 ± 0.07	0.919 ± 0.017	0.495 ± 0.02	0.265 ± 0.034	0.993 ± 0.094	1.05 ± 0.094	0.61 ± 0.043	0.418 ± 0.022	0.278 ± 0.029	0.275 ± 0.028	0.227 ± 0.021	0.183 ± 0.012	0.807 ± 0.064	0.784 ± 0.058
